Converted amounts (≈) assume the structure as drawn.
Key:
[1] = Cytotoxicity against Homo sapiens (human) HCT cells assessed as cell viability at 3.125 ug/ml after 48 hr by MTT assay; type: functional; conditions: read-out: Activity
MCF7 [2] = experiment: Cytotoxicity against Homo sapiens (human) MCF7 cells assessed as cell viability at 50 ug/ml after 48 hr by MTT assay; type: functional; conditions: MCF7, 48 h, read-out: Activity
MCF7 [3] = experiment: Cytotoxicity against Homo sapiens (human) MCF7 cells assessed as cell viability at 6.25 ug/ml after 48 hr by MTT assay; type: functional; conditions: MCF7, 48 h, read-out: Activity
MCF7 [4] = experiment: Cytotoxicity against Homo sapiens (human) MCF7 cells assessed as cell viability at 3.125 ug/ml after 48 hr by MTT assay; type: functional; conditions: MCF7, 48 h, read-out: Activity
HepG2 [5] = experiment: Cytotoxicity against Homo sapiens (human) HepG2 cells assessed as cell viability at 6.25 ug/ml after 48 hr by MTT assay; type: functional; conditions: HepG2, 48 h, read-out: Activity
HepG2 [6] = experiment: Cytotoxicity against Homo sapiens (human) HepG2 cells assessed as cell viability at 3.125 ug/ml after 48 hr by MTT assay; type: functional; conditions: HepG2, 48 h, read-out: Activity
[7] = Cytotoxicity against Homo sapiens (human) HCT cells assessed as cell viability at 1.56 ug/ml after 48 hr by MTT assay; type: functional; conditions: read-out: Activity
HepG2 [8] = experiment: Cytotoxicity against Homo sapiens (human) HepG2 cells assessed as cell viability at 12.5 ug/ml after 48 hr by MTT assay; type: functional; conditions: HepG2, 48 h, read-out: Activity
[9] = Cytotoxicity against Homo sapiens (human) HCT cells after 48 hr by MTT assay; type: functional, cell-based
[10] = Cytotoxicity against Homo sapiens (human) HCT cells assessed as cell viability at 6.25 ug/ml after 48 hr by MTT assay; type: functional; conditions: read-out: Activity
MCF7 [11] = experiment: Cytotoxicity against Homo sapiens (human) MCF7 cells assessed as cell viability at 12.5 ug/ml after 48 hr by MTT assay; type: functional; conditions: MCF7, 48 h, read-out: Activity
HepG2 [12] = experiment: Cytotoxicity against Homo sapiens (human) HepG2 cells assessed as cell viability at 25 ug/ml after 48 hr by MTT assay; type: functional; conditions: HepG2, 48 h, read-out: Activity
HepG2 [13] = experiment: Cytotoxicity against Homo sapiens (human) HepG2 cells assessed as cell viability at 50 ug/ml after 48 hr by MTT assay; type: functional; conditions: HepG2, 48 h, read-out: Activity
MCF7 [14] = experiment: Cytotoxicity against Homo sapiens (human) MCF7 cells assessed as cell viability at 1.56 ug/ml after 48 hr by MTT assay; type: functional; conditions: MCF7, 48 h, read-out: Activity
HepG2 [15] = experiment: Cytotoxicity against Homo sapiens (human) HepG2 cells after 48 hr by MTT assay; type: functional, cell-based; conditions: HepG2, 48 h
MCF7 [16] = experiment: Cytotoxicity against Homo sapiens (human) MCF7 cells after 48 hr by MTT assay; type: functional, cell-based; conditions: MCF7, 48 h
HepG2 [17] = experiment: Cytotoxicity against Homo sapiens (human) HepG2 cells assessed as cell viability at 1.56 ug/ml after 48 hr by MTT assay; type: functional; conditions: HepG2, 48 h, read-out: Activity
[18] = Cytotoxicity against Homo sapiens (human) HCT cells assessed as cell viability at 12.5 ug/ml after 48 hr by MTT assay; type: functional; conditions: read-out: Activity
[19] = Cytotoxicity against Homo sapiens (human) HCT cells assessed as cell viability at 25 ug/ml after 48 hr by MTT assay; type: functional; conditions: read-out: Activity
MCF7 [20] = experiment: Cytotoxicity against Homo sapiens (human) MCF7 cells assessed as cell viability at 25 ug/ml after 48 hr by MTT assay; type: functional; conditions: MCF7, 48 h, read-out: Activity
[21] = Cytotoxicity against Homo sapiens (human) HCT cells assessed as cell viability at 50 ug/ml after 48 hr by MTT assay; type: functional; conditions: read-out: Activity

Compound | viability at 3.125 µg/mL [1] | viability at 50 µg/mL (MCF7 [2]) | viability at 6.25 µg/mL (MCF7 [3]) | viability at 3.125 µg/mL (MCF7 [4]) | viability at 6.25 µg/mL (HepG2 [5]) | viability at 3.125 µg/mL (HepG2 [6]) | viability at 1.56 µg/mL [7] | viability at 12.5 µg/mL (HepG2 [8]) | IC50 [9] | viability at 6.25 µg/mL [10] | viability at 12.5 µg/mL (MCF7 [11]) | viability at 25 µg/mL (HepG2 [12]) | viability at 50 µg/mL (HepG2 [13]) | viability at 1.56 µg/mL (MCF7 [14]) | IC50 (HepG2 [15]) | IC50 (MCF7 [16]) | viability at 1.56 µg/mL (HepG2 [17]) | viability at 12.5 µg/mL [18] | viability at 25 µg/mL [19] | viability at 25 µg/mL (MCF7 [20]) | further results
N#CC1=C(N)Oc2c(ccc3ccc(/C=C/c4ccc(Cl)cc4)nc23)C1c1ccc(Cl)cc1 (configuration not stated) | 59% | 29.6% | 45.4% | 61.9% | 79.2% | 85.8% | 69.1% | 74% | 4.8 µg/mL (≈ 10.2 µM) | 42.6% | 39.7% | 68.2% | 48.4% | 86.6% | 48.2 µg/mL (≈ 102 µM) | 5.6 µg/mL (≈ 11.9 µM) | 95.4% | 33.8% | 29% | 33.8% | viability at 50 µg/mL [21]: 24.7%
N#CC1=C(N)Oc2c(ccc3ccc(/C=C/c4ccc(F)cc4)nc23)C1c1ccc(Cl)cc1 (configuration not stated) | 98.8% | 28.5% | 91.8% | 97.9% | 96.2% | 98.9% | 100% | 84.6% | 43.8 µg/mL (≈ 96.5 µM) | 95.2% | 86.7% | 78.3% | 56.4% | 99.3% | > 50 µg/mL | 38.6 µg/mL (≈ 85 µM) | 100% | 86.9% | 62.5% | 79.4% | viability at 50 µg/mL [21]: 41.3%
N#CC1=C(N)Oc2c(ccc3ccc(/C=C/c4ccc(Br)cc4)nc23)C1c1ccc(Cl)cc1 (configuration not stated) | 89.8% | 29.4% | 64.7% | 73% | 53.1% | 64.4% | 98% | 39.4% | 10.2 µg/mL (≈ 19.8 µM) | 74.9% | 53.1% | 29% | 25.2% | 80.6% | 7.5 µg/mL (≈ 14.6 µM) | 15.9 µg/mL (≈ 30.9 µM) | 77.9% | 41.9% | 30.3% | 41.2% | viability at 50 µg/mL [21]: 22.8%
N#CC1=C(N)Oc2c(ccc3ccc(/C=C/c4ccc(F)cc4)nc23)C1c1ccc(Br)cc1 (configuration not stated) | 98.6% | 39.5% | 91.8% | 96.9% | 97.2% | 98.9% | 100% | 83.4% | > 50 µg/mL | 94.8% | 80.2% | 74.8% | 63.4% | 100% | > 50 µg/mL | 42.5 µg/mL (≈ 85.3 µM) | 100% | 91.1% | 83.4% | 67.8% | viability at 50 µg/mL [21]: 57.6%
N#CC1=C(N)Oc2c(ccc3ccc(/C=C/c4ccc(Br)cc4)nc23)C1c1ccc(Br)cc1 (configuration not stated) | 90.7% | 22.4% | 40.6% | 53.1% | 41.4% | 54.8% | 95.7% | 34.1% | 12.7 µg/mL (≈ 22.7 µM) | 80.5% | 31.7% | 25.7% | 16% | 61.1% | 8.7 µg/mL (≈ 15.6 µM) | 3.9 µg/mL (≈ 6.97 µM) | 74.3% | 51% | 33.5% | 27.4% | viability at 50 µg/mL [21]: 24%
CC[C@]1(O)C[C@@H]2CN(CCc3c([nH]c4ccccc34)[C@@](C(=O)OC)(c3cc4c(cc3OC)N(C)[C@H]3[C@@](O)(C(=O)OC)[C@H](OC(C)=O)[C@]5(CC)C=CCN6CC[C@]43[C@@H]65)C2)C1 [VINBLASTINE] | 47.5% | 7.82% | 48.8% | 60.4% | 45.1% | 55% | 53.4% | 24.2% | 2.6 µg/mL (≈ 3.21 µM) | 38.1% | 29.6% | 16.1% | 14.4% | 76.2% | 4.6 µg/mL (≈ 5.67 µM) | 6.1 µg/mL (≈ 7.52 µM) | 72.1% | 28.2% | 21.7% | 15.2% | viability at 50 µg/mL [21]: 16.3%
N#CC1=C(N)Oc2c(ccc3ccc(/C=C/c4ccc(Cl)cc4)nc23)C1c1ccc(Br)cc1 (configuration not stated) | 72.5% | 32.4% | 61.8% | 83.1% | 77.2% | 87.9% | 80.4% | 69.6% | 11.9 µg/mL (≈ 23.1 µM) | 69.8% | 50.3% | 44.9% | 33.8% | 98.5% | 23.2 µg/mL (≈ 45.1 µM) | 12.5 µg/mL (≈ 24.3 µM) | 94.6% | 47.8% | 34.2% | 39.9% | viability at 50 µg/mL [21]: 27.4%
